Laboratory results as given in patent publication US20240269139A1, “COMPOUNDS FOR TARGETED PROTEIN DEGRADATION OF KINASES” (DANA-FARBER CANCER INSTITUTE, INC., priority 2020, published 2024).
Read-outs that look alike come from different tables or passages of the source.

What was measured:
[1] = target: T1, protein kinases (human kinome) (Homo sapiens, UniProt Q96L34); assay type: cell-based; details: for logFC MARK4: Accession Q96L34-1
T1 sequence (Q96L34 1-752): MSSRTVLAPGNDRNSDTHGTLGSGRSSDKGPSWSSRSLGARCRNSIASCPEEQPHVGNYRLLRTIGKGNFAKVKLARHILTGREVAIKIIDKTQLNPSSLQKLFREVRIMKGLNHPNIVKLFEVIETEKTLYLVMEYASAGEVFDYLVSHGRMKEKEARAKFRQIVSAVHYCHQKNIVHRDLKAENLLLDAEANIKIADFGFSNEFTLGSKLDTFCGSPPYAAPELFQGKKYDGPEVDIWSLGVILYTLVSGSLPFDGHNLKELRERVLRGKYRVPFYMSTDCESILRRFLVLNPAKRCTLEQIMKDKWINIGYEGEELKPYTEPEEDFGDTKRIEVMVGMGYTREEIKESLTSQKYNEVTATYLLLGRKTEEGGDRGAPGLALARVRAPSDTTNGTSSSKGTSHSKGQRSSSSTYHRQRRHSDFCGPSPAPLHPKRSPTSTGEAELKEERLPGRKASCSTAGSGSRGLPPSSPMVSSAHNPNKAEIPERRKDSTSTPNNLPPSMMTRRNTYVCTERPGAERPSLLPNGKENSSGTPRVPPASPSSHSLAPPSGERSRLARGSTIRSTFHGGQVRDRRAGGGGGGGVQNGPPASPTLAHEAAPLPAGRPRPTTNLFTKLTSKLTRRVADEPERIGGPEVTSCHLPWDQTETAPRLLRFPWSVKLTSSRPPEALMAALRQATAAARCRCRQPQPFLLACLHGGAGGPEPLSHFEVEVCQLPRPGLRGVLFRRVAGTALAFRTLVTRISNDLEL

[2] = target: extended human kinome (kinase-like proteins) (Homo sapiens, UniProt Q16875); experiment: Whole cell quantitative proteomics: extended kinome hits; details: Accession Q16875
extended human kinome (kinase-like proteins), sequence (Q16875 whole entry): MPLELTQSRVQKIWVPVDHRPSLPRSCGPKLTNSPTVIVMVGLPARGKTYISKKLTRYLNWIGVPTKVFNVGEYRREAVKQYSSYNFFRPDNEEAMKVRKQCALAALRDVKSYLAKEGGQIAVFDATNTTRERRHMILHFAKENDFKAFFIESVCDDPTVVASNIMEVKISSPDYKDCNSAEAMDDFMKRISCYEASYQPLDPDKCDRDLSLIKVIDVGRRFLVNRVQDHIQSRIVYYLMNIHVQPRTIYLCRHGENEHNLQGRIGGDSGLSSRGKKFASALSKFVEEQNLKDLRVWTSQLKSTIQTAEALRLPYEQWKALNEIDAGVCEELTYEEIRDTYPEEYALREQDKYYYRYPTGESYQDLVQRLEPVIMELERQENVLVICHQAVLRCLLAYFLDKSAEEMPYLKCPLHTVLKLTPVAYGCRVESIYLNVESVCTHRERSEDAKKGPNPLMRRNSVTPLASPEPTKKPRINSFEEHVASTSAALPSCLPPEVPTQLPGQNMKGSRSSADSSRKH

[3] = target: protein kinases (human kinome) (Homo sapiens, UniProt Q13233); assay type: cell-based
protein kinases (human kinome) (Homo sapiens, UniProt Q13233), sequence (Q13233 whole entry): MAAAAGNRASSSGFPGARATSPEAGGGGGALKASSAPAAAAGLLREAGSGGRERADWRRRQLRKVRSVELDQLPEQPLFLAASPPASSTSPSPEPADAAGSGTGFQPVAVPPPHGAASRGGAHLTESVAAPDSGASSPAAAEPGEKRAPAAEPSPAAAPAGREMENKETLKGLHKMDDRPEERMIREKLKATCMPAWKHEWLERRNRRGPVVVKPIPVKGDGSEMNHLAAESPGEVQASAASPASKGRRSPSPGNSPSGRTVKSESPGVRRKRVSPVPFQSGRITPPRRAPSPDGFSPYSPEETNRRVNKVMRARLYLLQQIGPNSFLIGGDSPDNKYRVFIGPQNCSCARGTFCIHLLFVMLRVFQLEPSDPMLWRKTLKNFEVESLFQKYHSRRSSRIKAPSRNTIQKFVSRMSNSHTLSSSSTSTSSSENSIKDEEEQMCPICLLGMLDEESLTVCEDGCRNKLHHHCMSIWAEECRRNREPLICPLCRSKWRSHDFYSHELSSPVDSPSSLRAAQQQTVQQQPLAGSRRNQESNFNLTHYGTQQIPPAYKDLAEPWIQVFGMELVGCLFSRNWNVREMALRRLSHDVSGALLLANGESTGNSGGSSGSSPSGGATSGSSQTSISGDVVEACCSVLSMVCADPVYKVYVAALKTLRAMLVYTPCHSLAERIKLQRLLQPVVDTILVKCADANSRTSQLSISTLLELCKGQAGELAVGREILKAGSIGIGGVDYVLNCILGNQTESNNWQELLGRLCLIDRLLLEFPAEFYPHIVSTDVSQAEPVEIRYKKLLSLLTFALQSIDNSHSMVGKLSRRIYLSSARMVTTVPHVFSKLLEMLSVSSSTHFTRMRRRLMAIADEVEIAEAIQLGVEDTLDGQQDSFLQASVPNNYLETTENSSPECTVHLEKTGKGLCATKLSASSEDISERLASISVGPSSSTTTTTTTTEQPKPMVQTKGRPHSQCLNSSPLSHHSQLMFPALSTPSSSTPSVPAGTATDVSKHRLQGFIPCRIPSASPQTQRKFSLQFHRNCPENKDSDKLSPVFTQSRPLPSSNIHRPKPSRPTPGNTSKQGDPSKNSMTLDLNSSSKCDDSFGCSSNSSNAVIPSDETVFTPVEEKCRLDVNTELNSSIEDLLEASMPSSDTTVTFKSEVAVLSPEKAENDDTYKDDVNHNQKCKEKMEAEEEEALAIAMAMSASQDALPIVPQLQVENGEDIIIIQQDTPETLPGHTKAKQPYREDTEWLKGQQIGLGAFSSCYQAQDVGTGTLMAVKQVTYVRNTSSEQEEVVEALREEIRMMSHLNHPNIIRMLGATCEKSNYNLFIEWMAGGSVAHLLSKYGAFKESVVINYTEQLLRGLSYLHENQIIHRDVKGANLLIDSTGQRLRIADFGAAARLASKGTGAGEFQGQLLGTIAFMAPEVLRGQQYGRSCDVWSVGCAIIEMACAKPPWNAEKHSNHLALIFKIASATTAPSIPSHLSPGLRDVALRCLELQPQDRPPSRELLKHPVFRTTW

[4] = target: protein kinases (human kinome) (Homo sapiens, UniProt P51812); assay type: cell-based; details: RPS6KA3 (P51812)
protein kinases (human kinome) (Homo sapiens, UniProt P51812), sequence (P51812 whole entry): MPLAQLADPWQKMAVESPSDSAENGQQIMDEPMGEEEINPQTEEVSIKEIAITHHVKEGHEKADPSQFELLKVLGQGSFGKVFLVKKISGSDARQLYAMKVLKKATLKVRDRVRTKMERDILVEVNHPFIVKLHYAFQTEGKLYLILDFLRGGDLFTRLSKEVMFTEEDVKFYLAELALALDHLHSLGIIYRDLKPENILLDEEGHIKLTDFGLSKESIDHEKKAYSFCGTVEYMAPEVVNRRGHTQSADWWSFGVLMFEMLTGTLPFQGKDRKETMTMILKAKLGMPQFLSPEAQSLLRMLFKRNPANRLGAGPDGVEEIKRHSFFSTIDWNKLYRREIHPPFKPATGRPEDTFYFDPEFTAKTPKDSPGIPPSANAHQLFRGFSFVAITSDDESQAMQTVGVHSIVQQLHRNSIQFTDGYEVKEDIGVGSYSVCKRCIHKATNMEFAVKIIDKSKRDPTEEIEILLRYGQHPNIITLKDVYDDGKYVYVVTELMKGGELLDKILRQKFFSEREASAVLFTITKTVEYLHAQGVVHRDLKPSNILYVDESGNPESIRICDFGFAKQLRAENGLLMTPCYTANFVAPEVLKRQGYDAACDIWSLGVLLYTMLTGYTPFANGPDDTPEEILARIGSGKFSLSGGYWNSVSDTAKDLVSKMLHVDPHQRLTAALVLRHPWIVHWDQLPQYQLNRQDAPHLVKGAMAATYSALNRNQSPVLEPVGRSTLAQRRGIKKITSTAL

[5] = target: protein kinases (human kinome) (Homo sapiens, UniProt Q8TDR2); assay type: cell-based
protein kinases (human kinome) (Homo sapiens, UniProt Q8TDR2), sequence (Q8TDR2 whole entry): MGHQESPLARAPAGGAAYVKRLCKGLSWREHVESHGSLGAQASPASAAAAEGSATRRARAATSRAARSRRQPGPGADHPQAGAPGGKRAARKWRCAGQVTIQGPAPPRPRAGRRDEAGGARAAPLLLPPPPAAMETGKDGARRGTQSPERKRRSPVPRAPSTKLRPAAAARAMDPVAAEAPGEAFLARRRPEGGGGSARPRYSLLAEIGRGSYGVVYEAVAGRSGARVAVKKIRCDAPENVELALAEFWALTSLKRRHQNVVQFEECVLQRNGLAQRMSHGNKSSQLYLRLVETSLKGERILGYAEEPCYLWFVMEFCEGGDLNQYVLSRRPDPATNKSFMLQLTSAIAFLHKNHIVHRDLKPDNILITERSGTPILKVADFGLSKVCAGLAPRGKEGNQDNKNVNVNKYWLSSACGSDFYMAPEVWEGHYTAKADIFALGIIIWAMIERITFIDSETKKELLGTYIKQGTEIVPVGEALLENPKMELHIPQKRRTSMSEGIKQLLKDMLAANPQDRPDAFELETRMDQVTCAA

[6] = Accession Q13233, experiment wp107, direction down
[7] = MAP3K1 (Q13233), experiment wp107
[8] = experiment wp168, direction down
[9] = Accession Q13233, experiment wp076, direction down
[10] = MAP3K1 (Q13233), experiment wp076
[11] = experiment wp146, direction down

## O=C(COc1cccc2c1C(=O)N(C1CCC(=O)NC1=O)C2=O)NCCCCCCCN1CCc2cc(Nc3ncc(C4CC4)c(NCCCNC(=O)C4CCC4)n3)ccc2C1 (centres unmarked) [BSJ.04.178]
[1]; experiment wp134
  logFC MARK4: −0.993
  logFC MARK4 (Q96L34-1): −0.993

## Cc1ncsc1-c1ccc([C@H](C)NC(=O)[C@@H]2C[C@@H](O)CN2C(=O)[C@@H](NC(=O)CCCCCN2CCc3cc(Nc4ncc(C5CC5)c(NCCCNC(=O)C5CCC5)n4)ccc3C2)C(C)(C)C)cc1 [BSJ.05.026]
[1]; experiment wp195
  logFC MARK4: −1.571
[1]; Experiment wp195
  logFC MARK4 (Q96L34-1): −1.571

## Cc1ccc(NC(=O)c2cccc(C(F)(F)F)c2)cc1N1Cc2cnc(Nc3ccc(N4CCN(Cc5cn(CCCCCOc6cccc7c6C(=O)N(C6CCC(=O)NC6=O)C7=O)nn5)CC4)nc3)nc2N(C)C1=O (centres unmarked) [DB0646, N-(3-(7-((6-(4-((1-(5-((2-(2,6-Dioxopiperidin-3-yl)-1,3-dioxoisoindolin-4-yl)oxy)pentyl)-1H-1,2,3-triazol-4-yl)methyl)piperazin-1-v)pyridin-3-yl)amino)-1-methyl-2-oxo-1,4-dihydropyrimido[4,5-d]pyrimidin-3(2H)-yl)-4-methylphenyl)-3-(trifluoromethyl)benzamide]
[2]; experiment wp045
  logFC PFKFB3: −0.5182
[2]; experiment wp160, 8 hr
  logFC PFKFB3: −0.3754
[3]; [6]
  logFC MAP3K1: −0.3767
[3]; Accession Q13233, experiment wp152, direction down
  logFC MAP3K1: −0.6139
[3]; Accession Q13233, experiment wp160, 8 hr, direction down
  logFC MAP3K1: −0.7241
[3]; [7]
  logFC MAP3K1: −0.3767
[3]; MAP3K1 (Q13233), experiment wp152
  logFC MAP3K1: −0.6139
[3]; MAP3K1 (Q13233), experiment wp160, 8 hr
  logFC MAP3K1: −0.7241
[4]; experiment wp160, 8 hr
  logFC: −0.3332
[4]; experiment wp160, 8 hr, direction down
  logFC: −0.3332

## Cc1ccc(NC(=O)c2cccc(C(F)(F)F)c2)cc1N1Cc2cnc(Nc3ccc(N4CCN(CCCOc5cccc6c5C(=O)N(C5CCC(=O)NC5=O)C6=O)CC4)nc3)nc2N(C)C1=O (centres unmarked) [DB0662]
[2]; experiment wp168
  logFC PFKFB3: −0.4517
[3]; Accession Q13233, experiment wp168, direction down
  logFC MAP3K1: −0.7087
[3]; MAP3K1 (Q13233), experiment wp168
  logFC MAP3K1: −0.7087
[4]; experiment wp168
  logFC: −0.452
[4]; [8]
  logFC: −0.452

## Cc1ccc(NC(=O)c2cccc(C(F)(F)F)c2)cc1N1Cc2cnc(Nc3ccc(N4CCN(CCCCCCOc5cccc6c5C(=O)N(C5CCC(=O)NC5=O)C6=O)CC4)nc3)nc2N(C)C1=O (centres unmarked) [DB0663]
[2]; experiment wp045
  logFC PFKFB3: −0.4221

## Cc1ccc(NC(=O)c2cccc(C(F)(F)F)c2)cc1N1Cc2cnc(Nc3ccc(N4CCN(CCCCC(=O)N[C@H](C(=O)N5C[C@H](O)C[C@H]5C(=O)N[C@@H](C)c5ccc(-c6scnc6C)cc5)C(C)(C)C)CC4)nc3)nc2N(C)C1=O [DB1113]
[2]; experiment wp168
  logFC PFKFB3: −0.3724
[5]; Accession Q8TDR2, experiment wp168, direction down
  logFC STK35: −0.7606
[5]; STK35 (Q8TDR2), experiment wp168
  logFC STK35: −0.7606
[4]; experiment wp168
  logFC: −0.5079
[4]; [8]
  logFC: −0.5079

## Cc1ncsc1-c1ccc([C@H](C)NC(=O)[C@@H]2C[C@@H](O)CN2C(=O)[C@@H](NC(=O)CCOCCOCCN2CCN(c3ccc(Nc4ncc(Cl)c(Nc5ccccc5S(=O)(=O)C(C)C)n4)cc3)CC2)C(C)(C)C)cc1 [FMF.06.098.1]
[5]; Accession Q8TDR2, experiment wp108, direction down
  logFC STK35: −0.6029
[5]; Accession Q8TDR2, experiment wp114, direction down
  logFC STK35: −0.5116
[5]; Accession Q8TDR2, experiment wp131, direction down
  logFC STK35: −0.656
[5]; STK35 (Q8TDR2), experiment wp108
  logFC STK35: −0.6029
[5]; STK35 (Q8TDR2), experiment wp114
  logFC STK35: −0.5116
[5]; STK35 (Q8TDR2), experiment wp131
  logFC STK35: −0.656
[1]; experiment wp108
  logFC MARK4: −0.9041
[1]; experiment wp114
  logFC MARK4: −0.7224
  logFC MARK4 (Q96L34-1): −0.7224
[1]; experiment wp131
  logFC MARK4: −1.111
  logFC MARK4 (Q96L34-1): −1.111
[1]; Experiment wp108
  logFC MARK4 (Q96L34-1): −0.9041

## Cc1cnc(Nc2ccc(N3CCN(CCCCCCC(=O)N[C@H](C(=O)N4C[C@H](O)C[C@H]4C(=O)N[C@@H](C)c4ccc(-c5scnc5C)cc4)C(C)(C)C)CC3)cc2)nc1Nc1cccc(S(=O)(=O)NC(C)(C)C)c1 [JWG.123]
[1]; experiment wp195
  logFC MARK4: −1.532
[1]; Experiment wp195
  logFC MARK4 (Q96L34-1): −1.532

## CCc1cnn2c(N(Cc3ccc(N)nc3)C(=O)CCOCCOCCOCCNC(=O)CNc3cccc4c3C(=O)N(C3CCC(=O)NC3=O)C4=O)cc(N3CCCC[C@H]3CCO)nc12 (some centres unmarked) [MFH.5.115.2]
[3]; [9]
  logFC MAP3K1: −0.3528
[3]; [10]
  logFC MAP3K1: −0.3528

## O=C1CCC(N2C(=O)c3cccc(NCCCCCCCCN4CCC(NC(=O)c5[nH]ncc5NC(=O)c5c(Cl)cccc5Cl)CC4)c3C2=O)C(=O)N1 (centres unmarked) [MFH.5.126.1]
[3]; [9]
  logFC MAP3K1: −0.5947
[3]; [10]
  logFC MAP3K1: −0.5947

## Cc1ncsc1-c1ccc([C@H](C)NC(=O)[C@@H]2C[C@@H](O)CN2C(=O)[C@@H](NC(=O)CCCCCN2CCN(c3ccc(Nc4ncc5scc(-c6cccc(NS(C)(=O)=O)c6)c5n4)cc3)CC2)C(C)(C)C)cc1 [RSS0680, (2S,4R)-1-((S)-3,3-Dimethyl-2-(6-(4-(4-((7-(3-(methylsulfonamido)phenyl)thieno[3,2-d]pyrimidin-2-yl)amino)phenyl)piperazin-1-yl)hexanamido)butanoyl)-4-hydroxy-N—((S)-1-(4-(4-methylthiazol-5yl)phenyl)ethyl)pyrrolidine-2-carboxamide]
[5]; Accession Q8TDR2, experiment wp117, direction down
  logFC STK35: −0.3937
[5]; STK35 (Q8TDR2), experiment wp117
  logFC STK35: −0.3937
[1]; experiment wp080
  logFC MARK4: −0.4537
  logFC MARK4 (Q96L34-1): −0.4537

## CC(C)S(=O)(=O)c1ccccc1Nc1nc(Nc2ccc(N3CCN(CCOCCOCCC(=O)NCCNc4cccc5c4CN(C4CCC(=O)NC4=O)C5=O)CC3)cc2)ncc1Cl (centres unmarked) [TL13.97]
[1]; experiment wp137
  logFC MARK4: −1.74
  logFC MARK4 (Q96L34-1): −1.74

## NC(=O)c1c(F)cccc1Nc1nc(Nc2ccc(S(=O)(=O)NCCOCCOCCOCCOCCNc3cccc4c3C(=O)N(C3CCC(=O)NC3=O)C4=O)cc2)ncc1Br (centres unmarked) [TMX.02.138]
[4]; experiment wp146
  logFC: −0.4023
[4]; [11]
  logFC: −0.4023

## Cc1cc(Nc2ncc(Br)c(Nc3cccc(F)c3C(N)=O)n2)ccc1S(=O)(=O)NCCOCCOCCOCCOCCNc1cccc2c1C(=O)N(C1CCC(=O)NC1=O)C2=O (centres unmarked) [TMX.02.174]
[5]; Accession Q8TDR2, experiment wp146, direction down
  logFC STK35: −0.5631
[5]; STK35 (Q8TDR2), experiment wp146
  logFC STK35: −0.5631
[4]; experiment wp146
  logFC: −0.4312
[4]; [11]
  logFC: −0.4312

## Nc1ncc(-c2ccc(S(=O)(=O)N(CCCNC(=O)CCOCCOCCOCCOCCOCCNc3cccc4c3C(=O)N(C3CCC(=O)NC3=O)C4=O)C3CC3)cc2)cc1-c1ccc2c(c1)CCNC2=O (centres unmarked) [WH.10417.099]
[5]; Accession Q8TDR2, experiment wp056, direction down
  logFC STK35: −2.073
[5]; Accession Q8TDR2, experiment wp103, direction down
  logFC STK35: −1.239
[5]; Accession Q8TDR2, experiment wp107, direction down
  logFC STK35: −1.954
[5]; STK35 (Q8TDR2), experiment wp056
  logFC STK35: −2.073
[5]; STK35 (Q8TDR2), experiment wp103
  logFC STK35: −1.239
[5]; STK35 (Q8TDR2), experiment wp107
  logFC STK35: −1.954
[3]; Accession Q13233, experiment wp056, direction down
  logFC MAP3K1: −0.5034
[3]; [6]
  logFC MAP3K1: −0.4673
[3]; MAP3K1 (Q13233), experiment wp056
  logFC MAP3K1: −0.5034
[3]; [7]
  logFC MAP3K1: −0.4673
